Holding throughout (assay type): functional
For experiment [1], the system named is Escherichia coli. The experiment can be described thus: Antibacterial activity against Escherichia coli R477-100 by double-microdilution method. (Dilution methods test growth across graded concentrations, often in twofold steps.)
For experiment [2], the system named is Escherichia coli. The experiment can be described thus: Antibacterial activity against Escherichia coli ATCC 25922 by double-microdilution method.
Experiment [3] has as its system Escherichia coli. The experiment can be described thus: Antibacterial activity against kanamycin-resistant Escherichia coli AG100B expressing aminoglycosides resistant APH(3')-1 enzyme by double-microdilution method.
Experiment [4] deals with Escherichia coli. The experiment can be described thus: Antibacterial activity against kanamycin-resistant Escherichia coli AG100A expressing aminoglycosides resistant APH(3')-1 enzyme by double-microdilution method.
The next experiment concerns Bacillus subtilis. The experiment can be described thus: Antibacterial activity against aminoglycosides-susceptible Bacillus subtilis ATCC 6633 by double-microdilution method.
The test system of another experiment is Staphylococcus aureus. The experiment can be described thus: Antibacterial activity against methicillin-resistant Staphylococcus aureus ATCC 43300 by double-microdilution method.

A word on the MIC: it is the smallest concentration in the dilution series that meets the test's criterion for growth inhibition. A higher MIC goes with weaker potency.

≈ marks a conversion by molar mass, not a printed value.

For the compound `NC[C@@H]1O[C@H](O[C@H]2[C@@H](O)[C@H](O[C@@H]3[C@@H](O)[C@H](N)C[C@H](N)[C@H]3O[C@H]3O[C@H](CN)[C@@H](O)[C@H](O)[C@H]3N)O[C@@H]2C(=O)NCc2cn(CCOCCN3CCN(c4cc5c(cc4F)c(=O)c(C(=O)O)cn5C4CC4)CC3)nn2)[C@H](N)[C@@H](O)[C@@H]1O`, the MIC in the experiment with Escherichia coli [1] came out at 12 µg/mL (≈ 10.8 µM); in the experiment with Escherichia coli [2], 6 µg/mL (≈ 5.4 µM); against Escherichia coli [3], 12 µg/mL (≈ 10.8 µM); against Escherichia coli [4], 1.5 µg/mL (≈ 1.35 µM); against Bacillus subtilis, 12 µg/mL (≈ 10.8 µM); against Staphylococcus aureus, 24 µg/mL (≈ 21.6 µM).
For the compound `NC[C@@H]1O[C@H](O[C@H]2[C@@H](O)[C@H](O[C@@H]3[C@@H](O)[C@H](N)C[C@H](N)[C@H]3O[C@H]3O[C@H](CN)[C@@H](O)[C@H](O)[C@H]3N)O[C@@H]2C(=O)Nc2ccc(-c3cn(CCN4CCN(c5cc6c(cc5F)c(=O)c(C(=O)O)cn6C5CC5)CC4)nn3)cc2)[C@H](N)[C@@H](O)[C@@H]1O`, the MIC against Escherichia coli [1] was 12 µg/mL (≈ 10.6 µM); against Escherichia coli [2], 6 µg/mL (≈ 5.32 µM); against Escherichia coli [3], 24 µg/mL (≈ 21.3 µM); with Escherichia coli [4] it was 0.75 µg/mL (≈ 0.665 µM); against Bacillus subtilis it was 6 µg/mL (≈ 5.32 µM); against Staphylococcus aureus, 48 µg/mL (≈ 42.5 µM).
With `NC[C@@H]1O[C@H](O[C@H]2[C@@H](O)[C@H](O[C@@H]3[C@@H](O)[C@H](N)C[C@H](N)[C@H]3O[C@H]3O[C@H](CN)[C@@H](O)[C@H](O)[C@H]3N)O[C@@H]2C(=O)Nc2ccc(-c3cn(CCCCN4CCN(c5cc6c(cc5F)c(=O)c(C(=O)O)cn6C5CC5)CC4)nn3)cc2)[C@H](N)[C@@H](O)[C@@H]1O`, the MIC is 12 µg/mL (≈ 10.4 µM) against Escherichia coli [1]; 6 µg/mL (≈ 5.19 µM) against Escherichia coli [2]; 24 µg/mL (≈ 20.8 µM) in the experiment with Escherichia coli [3]; 1.5 µg/mL (≈ 1.3 µM) with Escherichia coli [4]; 6 µg/mL (≈ 5.19 µM) in the experiment on Bacillus subtilis; 24 µg/mL (≈ 20.8 µM) against Staphylococcus aureus.
In the case of `NC[C@@H]1O[C@H](O[C@H]2[C@@H](O)[C@H](O[C@@H]3[C@@H](O)[C@H](N)C[C@H](N)[C@H]3O[C@H]3O[C@H](CN)[C@@H](O)[C@H](O)[C@H]3N)O[C@@H]2C(=O)Nc2ccc(-c3cn(CCCN4CCN(c5cc6c(cc5F)c(=O)c(C(=O)O)cn6C5CC5)CC4)nn3)cc2)[C@H](N)[C@@H](O)[C@@H]1O`, the MIC is 6 µg/mL (≈ 5.25 µM) against Escherichia coli [1]; 3 µg/mL (≈ 2.63 µM) against Escherichia coli [2]; 12 µg/mL (≈ 10.5 µM) with Escherichia coli [3]; 1.5 µg/mL (≈ 1.31 µM) in the experiment with Escherichia coli [4]; 6 µg/mL (≈ 5.25 µM) in the experiment on Bacillus subtilis; 48 µg/mL (≈ 42 µM) with Staphylococcus aureus.
Take `NC[C@@H]1O[C@H](O[C@H]2[C@@H](O)[C@H](O[C@@H]3[C@@H](O)[C@H](N)C[C@H](N)[C@H]3O[C@H]3O[C@H](CN)[C@@H](O)[C@H](O)[C@H]3N)O[C@@H]2C(=O)Nc2ccc(-c3cn(Cc4cccc(CN5CCN(c6cc7c(cc6F)c(=O)c(C(=O)O)cn7C6CC6)CC5)c4)nn3)cc2)[C@H](N)[C@@H](O)[C@@H]1O`: the MIC against Escherichia coli [1] is 6 µg/mL (≈ 4.98 µM); with Escherichia coli [2] it was 12 µg/mL (≈ 9.96 µM); with Escherichia coli [3] it was 12 µg/mL (≈ 9.96 µM); in the experiment on Escherichia coli [4], 1.5 µg/mL (≈ 1.25 µM); against Bacillus subtilis, 6 µg/mL (≈ 4.98 µM); in the experiment on Staphylococcus aureus it was 12 µg/mL (≈ 9.96 µM).
On to `NC[C@@H]1O[C@H](O[C@H]2[C@@H](O)[C@H](O[C@@H]3[C@@H](O)[C@H](N)C[C@H](N)[C@H]3O[C@H]3O[C@H](CN)[C@@H](O)[C@H](O)[C@H]3N)O[C@@H]2C(=O)NCc2cn(CCCN3CCN(c4cc5c(cc4F)c(=O)c(C(=O)O)cn5C4CC4)CC3)nn2)[C@H](N)[C@@H](O)[C@@H]1O`, for which the MIC against Escherichia coli [1] amounted to 12 µg/mL (≈ 11.1 µM); against Escherichia coli [2] it was 6 µg/mL (≈ 5.55 µM); against Escherichia coli [3], 12 µg/mL (≈ 11.1 µM); against Escherichia coli [4] it was 1.5 µg/mL (≈ 1.39 µM); against Bacillus subtilis, 6 µg/mL (≈ 5.55 µM); against Staphylococcus aureus it was 48 µg/mL (≈ 44.4 µM).
For the compound `NC[C@@H]1O[C@H](O[C@H]2[C@@H](O)[C@H](O[C@@H]3[C@@H](O)[C@H](N)C[C@H](N)[C@H]3O[C@H]3O[C@H](CN)[C@@H](O)[C@H](O)[C@H]3N)O[C@@H]2C(=O)NCc2cn(CCCCCN3CCN(c4cc5c(cc4F)c(=O)c(C(=O)O)cn5C4CC4)CC3)nn2)[C@H](N)[C@@H](O)[C@@H]1O`, the MIC in the experiment on Escherichia coli [1] amounted to 24 µg/mL (≈ 21.7 µM); against Escherichia coli [2] it was 6 µg/mL (≈ 5.41 µM); against Escherichia coli [3], 24 µg/mL (≈ 21.7 µM); with Escherichia coli [4] it was 1.5 µg/mL (≈ 1.35 µM); against Bacillus subtilis, 12 µg/mL (≈ 10.8 µM); against Staphylococcus aureus, 48 µg/mL (≈ 43.3 µM).
On to `NC[C@@H]1O[C@H](O[C@H]2[C@@H](O)[C@H](O[C@@H]3[C@@H](O)[C@H](N)C[C@H](N)[C@H]3O[C@H]3O[C@H](CN)[C@@H](O)[C@H](O)[C@H]3N)O[C@@H]2C(=O)Nc2ccc(-c3cn(CCOCCN4CCN(c5cc6c(cc5F)c(=O)c(C(=O)O)cn6C5CC5)CC4)nn3)cc2)[C@H](N)[C@@H](O)[C@@H]1O`, for which the MIC with Escherichia coli [1] amounted to 24 µg/mL (≈ 20.5 µM); in the experiment on Escherichia coli [2] it was 12 µg/mL (≈ 10.2 µM); in the experiment with Escherichia coli [3] it was 12 µg/mL (≈ 10.2 µM); with Escherichia coli [4], 1.5 µg/mL (≈ 1.28 µM); against Bacillus subtilis, 12 µg/mL (≈ 10.2 µM); against Staphylococcus aureus it was 24 µg/mL (≈ 20.5 µM).
For the compound `NC[C@@H]1O[C@H](O[C@H]2[C@@H](O)[C@H](O[C@@H]3[C@@H](O)[C@H](N)C[C@H](N)[C@H]3O[C@H]3O[C@H](CN)[C@@H](O)[C@H](O)[C@H]3N)O[C@@H]2C(=O)Nc2ccc(-c3cn(CCCCCCN4CCN(c5cc6c(cc5F)c(=O)c(C(=O)O)cn6C5CC5)CC4)nn3)cc2)[C@H](N)[C@@H](O)[C@@H]1O`, the MIC in the experiment with Escherichia coli [1] was 6 µg/mL (≈ 5.07 µM); in the experiment on Escherichia coli [2], 6 µg/mL (≈ 5.07 µM); against Escherichia coli [3], 12 µg/mL (≈ 10.1 µM); in the experiment on Escherichia coli [4], 1.5 µg/mL (≈ 1.27 µM); in the experiment on Bacillus subtilis, 12 µg/mL (≈ 10.1 µM); against Staphylococcus aureus, 48 µg/mL (≈ 40.5 µM).
Regarding `NC[C@@H]1O[C@H](O[C@H]2[C@@H](O)[C@H](O[C@@H]3[C@@H](O)[C@H](N)C[C@H](N)[C@H]3O[C@H]3O[C@H](CN)[C@@H](O)[C@H](O)[C@H]3N)O[C@@H]2C(=O)Nc2ccc(-c3cn(CCCCCN4CCN(c5cc6c(cc5F)c(=O)c(C(=O)O)cn6C5CC5)CC4)nn3)cc2)[C@H](N)[C@@H](O)[C@@H]1O`, the minimum inhibitory concentration (MIC) in the experiment with Escherichia coli [1] amounted to 12 µg/mL (≈ 10.3 µM); with Escherichia coli [2] it was 6 µg/mL (≈ 5.13 µM); against Escherichia coli [3] it was 24 µg/mL (≈ 20.5 µM); in the experiment on Escherichia coli [4], 1.5 µg/mL (≈ 1.28 µM); with Bacillus subtilis, 12 µg/mL (≈ 10.3 µM); against Staphylococcus aureus, 48 µg/mL (≈ 41 µM).
With `NC[C@@H]1O[C@H](O[C@H]2[C@@H](O)[C@H](O[C@@H]3[C@@H](O)[C@H](N)C[C@H](N)[C@H]3O[C@H]3O[C@H](CN)[C@@H](O)[C@H](O)[C@H]3N)O[C@@H]2C(=O)NCc2cn(CCN3CCN(c4cc5c(cc4F)c(=O)c(C(=O)O)cn5C4CC4)CC3)nn2)[C@H](N)[C@@H](O)[C@@H]1O`, the MIC amounted to 12 µg/mL (≈ 11.3 µM) with Escherichia coli [1]; 6 µg/mL (≈ 5.63 µM) in the experiment with Escherichia coli [2]; 12 µg/mL (≈ 11.3 µM) in the experiment on Escherichia coli [3]; 1.5 µg/mL (≈ 1.41 µM) in the experiment on Escherichia coli [4]; 3 µg/mL (≈ 2.81 µM) with Bacillus subtilis; 24 µg/mL (≈ 22.5 µM) in the experiment on Staphylococcus aureus.
